Where “and” joins values, the source holds several entries; their conditions need not be identical. Equal entries are not always repeated. Where two headings read alike, the source gives them in different places.
What was measured:
Assay in all cases: Kinase selectivity profile assay
Assay type in all cases: biochemical
[1] = molecular target: T1, ABL1 (Homo sapiens, UniProt P00519); conditions: 500 nM, relative to DMSO; for remaining activity at 0.5 µM: read-out: Residual enzymatic activity
T1 construct: purchased Reaction Biology Corporation
In short: (§1)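 Radiometric kinase assay run by a standard protocol. Unbound phosphate was removed by washing filters in phosphoric acid, and product radioactivity gave percent remaining kinase activity versus DMSO vehicle reactions. Run in duplicate.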

[2] = molecular target: T2, ACK1 (Homo sapiens, UniProt Q07912); conditions: for remaining activity at 0.5 µM: 500 nM, relative to DMSO, read-out: Residual enzymatic activity
T2 construct: purchased Reaction Biology Corporation (assay service)
In short: as §1

[3] = molecular target: T3, BLK (Homo sapiens, UniProt P51451); conditions: for remaining activity at 0.5 µM: 500 nM, relative to DMSO, read-out: Residual enzymatic activity
T3 construct: purchased Reaction Biology Corporation (assay service)
In short: as §1

[4] = molecular target: T4, BRSK1 (Homo sapiens, UniProt Q8TDC3); conditions: 500 nM; relative to DMSO; read-out: Residual enzymatic activity
T4 construct: purchased Reaction Biology Corporation
In short: as §1

[5] = molecular target: T5, CAMK1b (Homo sapiens, UniProt Q6P2M8); conditions: 500 nM; relative to DMSO; read-out: Residual enzymatic activity
T5 construct: purchased Reaction Biology Corporation
In short: as §1

[6] = molecular target: T6, CAMK4 (Homo sapiens, UniProt Q16566); conditions: 500 nM; relative to DMSO; read-out: Residual enzymatic activity
T6 construct: purchased Reaction Biology Corporation
In short: as §1

[7] = molecular target: T7, CDK4/cyclin D1 (Homo sapiens, UniProt P11802); conditions: read-out: Residual enzymatic activity
T7 construct: purchased Reaction Biology Corporation
In short: as §1

[8] = molecular target: T8, CK1a1 (Homo sapiens, UniProt P48729); conditions: 500 nM; relative to DMSO; read-out: Residual enzymatic activity
T8 construct: purchased Reaction Biology Corporation
In short: as §1

[9] = molecular target: T9, CK1d (Homo sapiens, UniProt P48730); conditions: 500 nM; relative to DMSO; read-out: Residual enzymatic activity
T9 construct: purchased Reaction Biology Corporation
In short: as §1

[10] = molecular target: T10, CK1epsilon (Homo sapiens, UniProt P49674); conditions: 500 nM; relative to DMSO; read-out: Residual enzymatic activity
T10 construct: purchased Reaction Biology Corporation
In short: as §1

[11] = molecular target: T11, CK1g1 (Homo sapiens, UniProt Q9HCP0); conditions: 500 nM; relative to DMSO; read-out: Residual enzymatic activity
T11 construct: purchased Reaction Biology Corporation
In short: as §1

[12] = molecular target: T12, CK2a (Homo sapiens, UniProt P68400); conditions: 500 nM; relative to DMSO; read-out: Residual enzymatic activity
T12 construct: purchased Reaction Biology Corporation
In short: as §1

[13] = molecular target: T13, EPHA7 (Homo sapiens, UniProt Q15375); conditions: 500 nM, relative to DMSO; for remaining activity at 0.5 µM: read-out: Residual enzymatic activity
T13 construct: purchased Reaction Biology Corporation
In short: as §1

[14] = molecular target: T14, EPHA8 (Homo sapiens, UniProt P29322); conditions: 500 nM, relative to DMSO
T14 construct: purchased Reaction Biology Corporation
In short: as §1

[15] = molecular target: T15, ERK5/MAPK7 (Homo sapiens, UniProt Q13164); conditions: 500 nM; relative to DMSO; read-out: Residual enzymatic activity
T15 construct: purchased Reaction Biology Corporation
In short: as §1

[16] = molecular target: T16, FGFR3 (Homo sapiens, UniProt P22607); conditions: 500 nM, relative to DMSO; for remaining activity at 0.5 µM: read-out: Residual enzymatic activity
T16 construct: purchased Reaction Biology Corporation
In short: as §1

[17] = molecular target: T17, FLT4/VEGFR3 (Homo sapiens, UniProt P35916); conditions: for remaining activity at 0.5 µM: 500 nM, relative to DMSO, read-out: Residual enzymatic activity
T17 construct: purchased Reaction Biology Corporation (assay service)
In short: as §1

[18] = molecular target: T18, GSK3a (Homo sapiens, UniProt P49840); conditions: 500 nM; relative to DMSO; read-out: Residual enzymatic activity
T18 construct: purchased Reaction Biology Corporation
In short: as §1

[19] = molecular target: T19, HIPK3 (Homo sapiens, UniProt Q9H422); conditions: 500 nM; relative to DMSO; read-out: Residual enzymatic activity
T19 construct: purchased Reaction Biology Corporation
In short: as §1

[20] = molecular target: T20, IRAK4 (Homo sapiens, UniProt Q9NWZ3); conditions: 500 nM; relative to DMSO; read-out: Residual enzymatic activity
T20 construct: purchased Reaction Biology Corporation
In short: as §1

[21] = molecular target: T21, LOK/STK10 (Homo sapiens, UniProt O94804); conditions: 500 nM; relative to DMSO; read-out: Residual enzymatic activity
T21 construct: purchased Reaction Biology Corporation
In short: as §1

[22] = molecular target: T22, MELK (Homo sapiens, UniProt Q14680); conditions: 500 nM; relative to DMSO; read-out: Residual enzymatic activity
T22 construct: purchased Reaction Biology Corporation
In short: as §1

[23] = molecular target: T23, MNK1 (Homo sapiens, UniProt Q9BUB5); conditions: 500 nM; relative to DMSO; read-out: Residual enzymatic activity
T23 construct: purchased Reaction Biology Corporation
In short: as §1

[24] = molecular target: T24, MRCKb/CDC42BPB (Homo sapiens, UniProt Q9Y5S2); conditions: read-out: Residual enzymatic activity
T24 construct: purchased Reaction Biology Corporation
In short: as §1

[25] = molecular target: T25, MSK1/RPS6KA5 (Homo sapiens, UniProt O75582); conditions: 500 nM; relative to DMSO; read-out: Residual enzymatic activity
T25 construct: purchased Reaction Biology Corporation
In short: as §1

[26] = molecular target: T26, MYO3b (Homo sapiens, UniProt Q8WXR4); conditions: 500 nM; relative to DMSO; read-out: Residual enzymatic activity
T26 construct: purchased Reaction Biology Corporation
In short: as §1

[27] = molecular target: T27, NEK4 (Homo sapiens, UniProt P51957); conditions: 500 nM; relative to DMSO; read-out: Residual enzymatic activity
T27 construct: purchased Reaction Biology Corporation
In short: as §1

[28] = molecular target: T28, NLK (Homo sapiens, UniProt Q9UBE8); conditions: 500 nM; relative to DMSO; read-out: Residual enzymatic activity
T28 construct: purchased Reaction Biology Corporation
In short: as §1

[29] = molecular target: T29, PIM1 (Homo sapiens, UniProt P11309); conditions: 500 nM; relative to DMSO; read-out: Residual enzymatic activity
T29 construct: purchased Reaction Biology Corporation
In short: as §1

[30] = molecular target: T30, PKCg (Homo sapiens, UniProt P05129); conditions: 500 nM; relative to DMSO; read-out: Residual enzymatic activity
T30 construct: purchased Reaction Biology Corporation
In short: as §1

[31] = molecular target: T31, PKCiota (Homo sapiens, UniProt P41743); conditions: 500 nM; relative to DMSO; read-out: Residual enzymatic activity
T31 construct: purchased Reaction Biology Corporation
In short: as §1

[32] = molecular target: T32, SIK1 (Homo sapiens, UniProt P57059); conditions: for remaining activity at 0.5 µM: 500 nM, relative to DMSO, read-out: Residual enzymatic activity
T32 construct: purchased Reaction Biology Corporation (Malvern, PA, USA)
In short: as §1

[33] = molecular target: T33, SIK3 (Homo sapiens, UniProt Q9Y2K2); conditions: 500 nM; relative to DMSO; read-out: Residual enzymatic activity
T33 construct: purchased Reaction Biology Corporation
In short: as §1

[34] = molecular target: T34, STK25/YSK1 (Homo sapiens, UniProt O00506); conditions: 500 nM; relative to DMSO; read-out: Residual enzymatic activity
T34 construct: purchased Reaction Biology Corporation
In short: as §1

[35] = molecular target: T35, TRKA (Homo sapiens, UniProt P04629); conditions: 500 nM; relative to DMSO; read-out: Residual enzymatic activity
T35 construct: purchased Reaction Biology Corporation
In short: as §1

[36] = molecular target: T36, TSSK2 (Homo sapiens, UniProt Q96PF2); conditions: 500 nM; relative to DMSO; read-out: Residual enzymatic activity
T36 construct: purchased Reaction Biology Corporation
In short: as §1

[37] = molecular target: T37, TYRO3/SKY (Homo sapiens, UniProt Q06418); conditions: 500 nM; relative to DMSO; read-out: Residual enzymatic activity
T37 construct: purchased Reaction Biology Corporation
In short: as §1

[38] = molecular target: T38, ZAP70 (Homo sapiens, UniProt P43403); conditions: 500 nM; relative to DMSO; read-out: Residual enzymatic activity
T38 construct: purchased Reaction Biology Corporation
In short: as §1

[39] = molecular target: T39, p70S6K/RPS6KB1 (Homo sapiens, UniProt P23443); conditions: 500 nM; relative to DMSO; read-out: Residual enzymatic activity
T39 construct: purchased Reaction Biology Corporation
In short: as §1

[40] = 10-dose mode, threefold serial dilution from 10 μM

T13 sequence (Q15375 28-998): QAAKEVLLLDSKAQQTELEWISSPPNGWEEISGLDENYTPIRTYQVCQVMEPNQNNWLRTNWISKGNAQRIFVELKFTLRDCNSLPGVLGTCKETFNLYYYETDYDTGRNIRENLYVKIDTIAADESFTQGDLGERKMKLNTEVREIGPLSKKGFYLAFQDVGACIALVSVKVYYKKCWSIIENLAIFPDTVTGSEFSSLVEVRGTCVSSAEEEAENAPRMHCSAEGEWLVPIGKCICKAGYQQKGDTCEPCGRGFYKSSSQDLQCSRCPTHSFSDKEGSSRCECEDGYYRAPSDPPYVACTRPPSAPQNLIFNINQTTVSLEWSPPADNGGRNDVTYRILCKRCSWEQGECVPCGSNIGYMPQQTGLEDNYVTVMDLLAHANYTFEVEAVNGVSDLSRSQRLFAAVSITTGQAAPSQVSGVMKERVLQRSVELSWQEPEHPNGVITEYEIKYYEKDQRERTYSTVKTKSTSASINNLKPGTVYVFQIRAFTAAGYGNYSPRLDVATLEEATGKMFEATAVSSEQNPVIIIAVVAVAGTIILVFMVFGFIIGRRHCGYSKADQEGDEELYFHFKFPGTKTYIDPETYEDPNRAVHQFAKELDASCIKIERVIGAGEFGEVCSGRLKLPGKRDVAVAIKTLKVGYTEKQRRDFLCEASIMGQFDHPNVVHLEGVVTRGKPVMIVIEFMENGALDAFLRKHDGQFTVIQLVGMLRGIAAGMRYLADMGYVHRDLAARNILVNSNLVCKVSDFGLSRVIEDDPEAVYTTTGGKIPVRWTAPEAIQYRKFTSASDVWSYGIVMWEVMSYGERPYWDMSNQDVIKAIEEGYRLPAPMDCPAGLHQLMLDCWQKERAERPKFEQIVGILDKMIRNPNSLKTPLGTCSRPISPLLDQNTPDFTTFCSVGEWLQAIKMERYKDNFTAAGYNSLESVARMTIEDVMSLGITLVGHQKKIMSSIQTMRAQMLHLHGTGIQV
T1 sequence (P00519 whole entry): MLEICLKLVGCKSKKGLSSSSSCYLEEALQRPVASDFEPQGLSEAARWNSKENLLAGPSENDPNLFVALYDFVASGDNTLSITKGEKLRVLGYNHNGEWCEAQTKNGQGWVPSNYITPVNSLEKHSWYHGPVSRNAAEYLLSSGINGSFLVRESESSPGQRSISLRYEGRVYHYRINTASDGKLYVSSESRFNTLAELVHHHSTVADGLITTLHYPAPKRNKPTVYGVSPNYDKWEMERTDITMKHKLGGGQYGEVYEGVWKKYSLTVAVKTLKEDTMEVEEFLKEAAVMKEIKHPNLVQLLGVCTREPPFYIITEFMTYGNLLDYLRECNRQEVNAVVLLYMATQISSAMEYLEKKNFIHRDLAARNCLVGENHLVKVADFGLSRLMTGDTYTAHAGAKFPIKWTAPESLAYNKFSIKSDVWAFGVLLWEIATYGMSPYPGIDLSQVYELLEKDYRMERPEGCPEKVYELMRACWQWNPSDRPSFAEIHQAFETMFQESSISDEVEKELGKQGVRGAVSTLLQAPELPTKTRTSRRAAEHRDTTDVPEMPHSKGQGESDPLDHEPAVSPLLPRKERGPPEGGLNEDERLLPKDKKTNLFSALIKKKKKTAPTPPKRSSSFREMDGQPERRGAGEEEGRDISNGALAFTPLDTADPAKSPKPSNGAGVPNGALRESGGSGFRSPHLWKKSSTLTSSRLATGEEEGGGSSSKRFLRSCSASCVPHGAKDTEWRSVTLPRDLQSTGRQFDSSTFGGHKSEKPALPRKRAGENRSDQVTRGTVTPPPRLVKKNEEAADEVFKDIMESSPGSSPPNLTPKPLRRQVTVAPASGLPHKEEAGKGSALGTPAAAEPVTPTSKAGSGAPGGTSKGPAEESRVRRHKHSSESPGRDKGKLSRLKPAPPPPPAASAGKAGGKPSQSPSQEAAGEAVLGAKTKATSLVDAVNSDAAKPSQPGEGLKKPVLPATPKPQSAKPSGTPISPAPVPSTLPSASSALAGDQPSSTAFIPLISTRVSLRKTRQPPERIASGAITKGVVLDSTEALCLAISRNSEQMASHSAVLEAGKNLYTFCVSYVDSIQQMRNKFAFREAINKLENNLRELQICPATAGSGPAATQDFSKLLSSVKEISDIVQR
T16 sequence (P22607 23-806): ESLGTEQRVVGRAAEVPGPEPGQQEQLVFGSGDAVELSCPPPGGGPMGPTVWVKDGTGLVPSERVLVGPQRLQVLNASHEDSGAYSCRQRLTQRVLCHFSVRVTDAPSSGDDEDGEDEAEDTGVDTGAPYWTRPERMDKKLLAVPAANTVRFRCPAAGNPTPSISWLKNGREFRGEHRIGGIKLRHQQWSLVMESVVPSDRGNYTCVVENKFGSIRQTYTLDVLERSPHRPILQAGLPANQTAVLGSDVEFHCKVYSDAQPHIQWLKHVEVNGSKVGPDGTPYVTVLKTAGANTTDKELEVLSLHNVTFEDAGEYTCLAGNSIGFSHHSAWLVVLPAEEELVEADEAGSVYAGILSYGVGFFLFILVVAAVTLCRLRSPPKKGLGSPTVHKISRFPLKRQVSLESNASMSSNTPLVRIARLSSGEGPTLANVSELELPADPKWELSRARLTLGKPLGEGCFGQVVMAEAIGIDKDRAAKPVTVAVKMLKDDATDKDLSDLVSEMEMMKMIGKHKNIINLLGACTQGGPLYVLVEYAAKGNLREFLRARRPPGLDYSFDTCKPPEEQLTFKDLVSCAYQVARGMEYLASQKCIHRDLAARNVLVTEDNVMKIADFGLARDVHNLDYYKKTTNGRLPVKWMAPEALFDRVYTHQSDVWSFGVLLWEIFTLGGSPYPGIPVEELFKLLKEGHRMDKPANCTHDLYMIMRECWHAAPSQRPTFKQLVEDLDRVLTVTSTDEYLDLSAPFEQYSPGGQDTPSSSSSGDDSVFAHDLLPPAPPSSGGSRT
T17 sequence (P35916 25-1363): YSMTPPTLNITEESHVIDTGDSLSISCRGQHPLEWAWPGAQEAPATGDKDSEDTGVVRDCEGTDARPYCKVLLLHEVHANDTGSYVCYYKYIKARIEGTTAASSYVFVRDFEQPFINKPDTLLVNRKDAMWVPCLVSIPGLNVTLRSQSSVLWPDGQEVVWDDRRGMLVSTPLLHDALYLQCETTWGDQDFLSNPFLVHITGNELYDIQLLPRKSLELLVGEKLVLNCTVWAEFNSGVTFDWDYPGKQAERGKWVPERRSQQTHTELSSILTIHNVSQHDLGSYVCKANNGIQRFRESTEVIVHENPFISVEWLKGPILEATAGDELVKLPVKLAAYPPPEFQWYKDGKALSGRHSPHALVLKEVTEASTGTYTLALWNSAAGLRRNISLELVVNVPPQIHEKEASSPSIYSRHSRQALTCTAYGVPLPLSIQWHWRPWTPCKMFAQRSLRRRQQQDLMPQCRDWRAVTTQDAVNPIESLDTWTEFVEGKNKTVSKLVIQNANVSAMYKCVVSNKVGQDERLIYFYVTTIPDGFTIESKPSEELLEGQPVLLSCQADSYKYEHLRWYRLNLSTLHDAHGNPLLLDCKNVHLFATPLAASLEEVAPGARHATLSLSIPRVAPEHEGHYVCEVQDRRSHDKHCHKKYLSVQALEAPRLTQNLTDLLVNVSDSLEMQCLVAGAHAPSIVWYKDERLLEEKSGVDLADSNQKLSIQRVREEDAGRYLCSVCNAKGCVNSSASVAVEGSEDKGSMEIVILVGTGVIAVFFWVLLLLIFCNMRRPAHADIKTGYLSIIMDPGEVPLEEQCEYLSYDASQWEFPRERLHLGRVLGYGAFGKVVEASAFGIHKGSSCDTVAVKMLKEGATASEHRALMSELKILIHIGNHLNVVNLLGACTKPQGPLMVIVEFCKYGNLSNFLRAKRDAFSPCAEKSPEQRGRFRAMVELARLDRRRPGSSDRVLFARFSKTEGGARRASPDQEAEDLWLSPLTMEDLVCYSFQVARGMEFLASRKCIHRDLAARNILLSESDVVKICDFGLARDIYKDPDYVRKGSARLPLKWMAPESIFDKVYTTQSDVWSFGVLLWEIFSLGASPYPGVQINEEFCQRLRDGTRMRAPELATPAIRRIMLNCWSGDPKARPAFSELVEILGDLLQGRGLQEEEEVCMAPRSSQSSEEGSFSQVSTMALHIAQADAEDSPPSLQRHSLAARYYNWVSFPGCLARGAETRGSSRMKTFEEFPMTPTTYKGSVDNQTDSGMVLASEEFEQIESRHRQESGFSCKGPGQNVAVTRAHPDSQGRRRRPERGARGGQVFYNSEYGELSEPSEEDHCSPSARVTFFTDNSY
T32 sequence (P57059 whole entry): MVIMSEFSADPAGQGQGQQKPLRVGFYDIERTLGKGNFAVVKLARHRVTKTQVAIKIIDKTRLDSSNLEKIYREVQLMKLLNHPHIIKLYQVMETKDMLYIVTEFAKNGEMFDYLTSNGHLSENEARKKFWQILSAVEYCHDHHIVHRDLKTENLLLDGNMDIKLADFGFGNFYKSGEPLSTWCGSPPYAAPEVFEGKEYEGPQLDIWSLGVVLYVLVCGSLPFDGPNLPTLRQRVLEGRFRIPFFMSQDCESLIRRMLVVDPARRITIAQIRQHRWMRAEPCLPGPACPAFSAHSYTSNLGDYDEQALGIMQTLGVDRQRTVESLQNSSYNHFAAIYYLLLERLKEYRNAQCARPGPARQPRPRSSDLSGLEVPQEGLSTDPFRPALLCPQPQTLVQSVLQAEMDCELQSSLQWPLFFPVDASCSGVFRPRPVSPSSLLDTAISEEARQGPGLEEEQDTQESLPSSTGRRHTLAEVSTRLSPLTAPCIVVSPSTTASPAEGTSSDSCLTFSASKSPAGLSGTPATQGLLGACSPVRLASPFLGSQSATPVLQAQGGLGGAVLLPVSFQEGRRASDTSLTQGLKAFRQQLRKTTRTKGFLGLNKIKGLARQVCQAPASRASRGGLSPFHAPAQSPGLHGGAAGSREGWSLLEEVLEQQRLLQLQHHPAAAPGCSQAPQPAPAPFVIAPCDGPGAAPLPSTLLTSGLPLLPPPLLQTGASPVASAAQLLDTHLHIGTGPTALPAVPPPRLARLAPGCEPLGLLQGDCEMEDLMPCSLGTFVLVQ

COc1cc(Nc2ncnc(Nc3cc4c(cn3)NC(=O)C(C)(C)O4)n2)cc(OC)c1OC [MT-SYK-03]
Residual enzymatic activity [1]: 68.0%
remaining activity at 0.5 µM [1]: > 54%
remaining activity at 0.5 µM [2]: 5.4%
IC50 [2, 40]: 86 nM and 85.7 nM
remaining activity at 0.5 µM [3]: 19.8%
IC50 [3, 40]: 9.6 nM
inhibition at 0.5 µM ([3]; read-out: Inhibition at 500 nM): > 90%
remaining activity at 0.5 µM [4]: 92.6%
remaining activity at 0.5 µM [5]: 106%
remaining activity at 0.5 µM [6]: 111%
remaining activity at 0.5 µM ([7]; 500 nM, relative to DMSO): 109%
remaining activity at 0.5 µM [8]: 101%
remaining activity at 0.5 µM [9]: 86.5%
remaining activity at 0.5 µM [10]: 98%
remaining activity at 0.5 µM [11]: 93.5%
remaining activity at 0.5 µM [12]: 94.3%
Residual enzymatic activity [13]: 58.4%
remaining activity at 0.5 µM [13]: > 54%
Residual enzymatic activity [14]: 99.7%
remaining activity at 0.5 µM [15]: 92.2%
Residual enzymatic activity [16]: 57.2%
remaining activity at 0.5 µM [16]: > 54%
remaining activity at 0.5 µM [17]: 40.4%
IC50 [17, 40]: 55.4 nM
remaining activity at 0.5 µM [18]: 74.2%
remaining activity at 0.5 µM [19]: 110%
remaining activity at 0.5 µM [20]: 103%
remaining activity at 0.5 µM [21]: 75.7%
remaining activity at 0.5 µM [22]: 86.6%
remaining activity at 0.5 µM [23]: 91.2%
remaining activity at 0.5 µM ([24]; 500 nM, relative to DMSO): 103%
remaining activity at 0.5 µM [25]: 106%
remaining activity at 0.5 µM [26]: 95.4%
remaining activity at 0.5 µM [27]: 109%
remaining activity at 0.5 µM [28]: 94.9%
remaining activity at 0.5 µM [29]: 101%
remaining activity at 0.5 µM [30]: 103%
remaining activity at 0.5 µM [31]: 102%
remaining activity at 0.5 µM [32]: 10.1%
IC50 [32, 40]: 36 nM and 35.9 nM
remaining activity at 0.5 µM [33]: 83.4%
remaining activity at 0.5 µM [34]: 105%
remaining activity at 0.5 µM [35]: 82.5%
remaining activity at 0.5 µM [36]: 106%
remaining activity at 0.5 µM [37]: 104%
remaining activity at 0.5 µM [38]: 93.4%
remaining activity at 0.5 µM [39]: 98.3%

COc1cc(Nc2ncc(F)c(Nc3ccc4c(n3)NC(=O)C(C)(C)O4)n2)cc(OC)c1OC [R406, reference compound]
remaining activity at 0.5 µM [1]: 68.6%
remaining activity at 0.5 µM [2]: 0.6%
remaining activity at 0.5 µM [3]: 16.7%
remaining activity at 0.5 µM [4]: 61.6%
remaining activity at 0.5 µM [5]: 108%
remaining activity at 0.5 µM [6]: 120%
remaining activity at 0.5 µM [7]: 104%
remaining activity at 0.5 µM [8]: 95.5%
remaining activity at 0.5 µM [9]: 78.7%
remaining activity at 0.5 µM [10]: 104%
remaining activity at 0.5 µM [11]: 92.7%
remaining activity at 0.5 µM [12]: 50.8%
remaining activity at 0.5 µM [13]: 10.5%
remaining activity at 0.5 µM ([14]; read-out: Residual enzymatic activity): 92.6%
remaining activity at 0.5 µM [15]: 88.2%
remaining activity at 0.5 µM [16]: 17.4%
remaining activity at 0.5 µM [17]: 4.9%
remaining activity at 0.5 µM [18]: 27.5%
remaining activity at 0.5 µM [19]: 96.4%
remaining activity at 0.5 µM [20]: 41.9%
remaining activity at 0.5 µM [21]: 37.4%
remaining activity at 0.5 µM [22]: 54.7%
remaining activity at 0.5 µM [23]: 61.5%
remaining activity at 0.5 µM [24]: 105%
remaining activity at 0.5 µM [25]: 97.3%
remaining activity at 0.5 µM [26]: 94.1%
remaining activity at 0.5 µM [27]: 52.1%
remaining activity at 0.5 µM [28]: 107%
remaining activity at 0.5 µM [29]: 99.2%
remaining activity at 0.5 µM [30]: 63.6%
remaining activity at 0.5 µM [31]: 103%
remaining activity at 0.5 µM [32]: 7.2%
remaining activity at 0.5 µM [33]: 75.4%
remaining activity at 0.5 µM [34]: 90.7%
remaining activity at 0.5 µM [35]: 25.7%
remaining activity at 0.5 µM [36]: 95.2%
remaining activity at 0.5 µM [37]: 94.6%
remaining activity at 0.5 µM [38]: 43.5%
remaining activity at 0.5 µM [39]: 49.1%

Reference: paper PMC8632988, “Inhibition of SYK and cSrc kinases can protect bone and cartilage in preclinical models of osteoarthritis and rheumatoid arthritis” (Scientific Reports, 2021)
